Read-outs that look alike come from different tables or passages of the source.
What was measured:
Assay in all cases: biochemical
Set-up in all cases: Eurofins KinaseProfiler full panel at Km ATP, residual kinase activity (%) relative to DMSO
B-Raf(h) = target: T1, B-Raf(h) (Homo sapiens, UniProt P15056)
T1 construct: gene BRAF
In short: (§1)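 Radiometric kinase activity assays were run with ATP at Km and compounds at 10 µM, and remaining activity (%) was reported. A separate competitive binding screen measured DNA-tagged kinase displaced from immobilized active-site ligands by qPCR, giving percent kinase still bound at 10 µM compound in DMSO.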

CLK3(h) = CLK3(h) (Homo sapiens, UniProt P49761)
Chain of CLK3(h) (P49761 whole entry): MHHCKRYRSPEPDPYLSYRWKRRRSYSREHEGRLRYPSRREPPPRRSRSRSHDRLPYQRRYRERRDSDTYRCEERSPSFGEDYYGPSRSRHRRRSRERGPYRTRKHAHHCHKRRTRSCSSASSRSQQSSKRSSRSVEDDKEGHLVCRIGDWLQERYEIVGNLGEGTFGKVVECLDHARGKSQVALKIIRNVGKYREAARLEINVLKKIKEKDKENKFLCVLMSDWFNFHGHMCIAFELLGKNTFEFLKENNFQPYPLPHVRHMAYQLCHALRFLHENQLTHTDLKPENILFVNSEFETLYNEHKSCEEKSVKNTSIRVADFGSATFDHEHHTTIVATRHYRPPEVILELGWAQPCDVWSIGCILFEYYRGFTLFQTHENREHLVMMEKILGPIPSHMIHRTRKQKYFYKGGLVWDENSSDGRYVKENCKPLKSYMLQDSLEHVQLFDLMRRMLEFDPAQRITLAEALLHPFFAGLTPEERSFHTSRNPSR
In short: as §1

EphA3(h) = target: T2, EphA3(h) (Homo sapiens, UniProt P29320)
T2 sequence (P29320 1-983): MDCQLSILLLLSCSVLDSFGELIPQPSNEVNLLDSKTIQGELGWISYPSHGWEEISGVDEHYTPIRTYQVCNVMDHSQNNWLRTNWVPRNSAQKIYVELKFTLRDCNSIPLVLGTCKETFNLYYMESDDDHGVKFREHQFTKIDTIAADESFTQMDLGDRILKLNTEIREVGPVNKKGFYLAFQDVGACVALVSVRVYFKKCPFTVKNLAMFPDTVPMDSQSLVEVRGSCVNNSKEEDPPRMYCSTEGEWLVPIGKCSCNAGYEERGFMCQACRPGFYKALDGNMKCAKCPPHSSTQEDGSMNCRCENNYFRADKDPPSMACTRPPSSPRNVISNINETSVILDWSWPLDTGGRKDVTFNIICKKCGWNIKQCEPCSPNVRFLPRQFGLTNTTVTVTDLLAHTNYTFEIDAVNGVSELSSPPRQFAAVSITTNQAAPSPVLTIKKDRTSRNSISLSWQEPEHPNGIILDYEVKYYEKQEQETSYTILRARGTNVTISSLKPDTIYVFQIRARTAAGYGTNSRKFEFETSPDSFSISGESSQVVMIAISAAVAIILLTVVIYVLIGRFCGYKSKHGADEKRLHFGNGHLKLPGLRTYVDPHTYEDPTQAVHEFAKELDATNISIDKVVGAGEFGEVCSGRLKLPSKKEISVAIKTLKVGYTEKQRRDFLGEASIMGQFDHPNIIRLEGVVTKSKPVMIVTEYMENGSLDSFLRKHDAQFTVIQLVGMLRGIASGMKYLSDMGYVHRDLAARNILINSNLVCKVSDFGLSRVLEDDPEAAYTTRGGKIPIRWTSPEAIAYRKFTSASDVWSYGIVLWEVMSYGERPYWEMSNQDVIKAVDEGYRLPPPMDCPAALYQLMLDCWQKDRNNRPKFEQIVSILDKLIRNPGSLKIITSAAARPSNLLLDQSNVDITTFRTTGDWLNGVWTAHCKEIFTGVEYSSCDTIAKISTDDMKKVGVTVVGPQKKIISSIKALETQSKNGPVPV
In short: as §1

HIPK1(h) = HIPK1(h) (Homo sapiens, UniProt Q86Z02)
In short: as §1

NLK(h) = target: T3, NLK(h) (Homo sapiens, UniProt Q9UBE8)
T3 sequence (Q9UBE8 1-527): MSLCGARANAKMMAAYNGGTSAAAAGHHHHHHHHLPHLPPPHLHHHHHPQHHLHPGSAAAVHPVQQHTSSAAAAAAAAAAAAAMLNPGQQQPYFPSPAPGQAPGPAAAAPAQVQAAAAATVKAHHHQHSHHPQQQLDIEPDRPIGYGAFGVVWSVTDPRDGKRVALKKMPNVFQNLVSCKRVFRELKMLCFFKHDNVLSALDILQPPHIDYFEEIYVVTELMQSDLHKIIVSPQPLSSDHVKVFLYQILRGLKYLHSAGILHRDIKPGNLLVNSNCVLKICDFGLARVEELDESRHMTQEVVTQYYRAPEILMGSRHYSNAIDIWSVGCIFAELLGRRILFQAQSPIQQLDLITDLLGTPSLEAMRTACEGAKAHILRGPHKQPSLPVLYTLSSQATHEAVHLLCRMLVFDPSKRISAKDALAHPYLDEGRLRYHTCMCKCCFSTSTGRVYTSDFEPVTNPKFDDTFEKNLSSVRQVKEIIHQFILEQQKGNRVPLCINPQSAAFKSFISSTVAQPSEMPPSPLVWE
In short: as §1

[1] = target: T4, PI3 Kinase (p110b/p85b)(m) (Mus musculus, UniProt Q8BTI9)
T4 construct: gene Pik3cb
T4 sequence (Q8BTI9 whole entry): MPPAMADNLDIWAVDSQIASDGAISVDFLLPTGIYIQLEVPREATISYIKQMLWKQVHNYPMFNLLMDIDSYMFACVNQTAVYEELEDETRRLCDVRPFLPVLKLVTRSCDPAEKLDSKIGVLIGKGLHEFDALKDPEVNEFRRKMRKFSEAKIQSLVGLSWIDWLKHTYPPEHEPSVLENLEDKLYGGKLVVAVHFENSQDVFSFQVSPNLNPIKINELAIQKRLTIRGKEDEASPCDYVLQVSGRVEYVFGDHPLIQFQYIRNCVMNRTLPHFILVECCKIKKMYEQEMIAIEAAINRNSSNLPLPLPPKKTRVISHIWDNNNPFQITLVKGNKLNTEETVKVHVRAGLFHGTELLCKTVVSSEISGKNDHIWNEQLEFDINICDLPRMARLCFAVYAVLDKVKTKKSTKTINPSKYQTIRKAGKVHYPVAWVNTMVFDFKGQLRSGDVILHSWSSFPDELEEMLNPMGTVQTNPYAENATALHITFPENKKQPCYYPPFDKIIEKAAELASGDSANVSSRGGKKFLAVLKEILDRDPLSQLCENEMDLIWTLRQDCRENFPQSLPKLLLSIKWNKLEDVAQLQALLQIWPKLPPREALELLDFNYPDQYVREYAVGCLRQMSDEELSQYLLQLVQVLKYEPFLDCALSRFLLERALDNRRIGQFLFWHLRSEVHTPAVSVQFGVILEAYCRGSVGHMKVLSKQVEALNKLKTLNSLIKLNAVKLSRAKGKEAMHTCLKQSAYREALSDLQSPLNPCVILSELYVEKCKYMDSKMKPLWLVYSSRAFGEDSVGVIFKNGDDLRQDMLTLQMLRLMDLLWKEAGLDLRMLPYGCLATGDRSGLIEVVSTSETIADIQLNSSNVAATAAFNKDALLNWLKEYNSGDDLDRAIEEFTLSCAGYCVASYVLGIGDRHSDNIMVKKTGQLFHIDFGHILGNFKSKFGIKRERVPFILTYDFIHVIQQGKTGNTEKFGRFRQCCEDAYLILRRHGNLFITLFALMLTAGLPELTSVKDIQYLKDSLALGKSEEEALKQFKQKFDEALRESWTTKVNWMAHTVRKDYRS
T4 sequence (O08908 whole entry partner): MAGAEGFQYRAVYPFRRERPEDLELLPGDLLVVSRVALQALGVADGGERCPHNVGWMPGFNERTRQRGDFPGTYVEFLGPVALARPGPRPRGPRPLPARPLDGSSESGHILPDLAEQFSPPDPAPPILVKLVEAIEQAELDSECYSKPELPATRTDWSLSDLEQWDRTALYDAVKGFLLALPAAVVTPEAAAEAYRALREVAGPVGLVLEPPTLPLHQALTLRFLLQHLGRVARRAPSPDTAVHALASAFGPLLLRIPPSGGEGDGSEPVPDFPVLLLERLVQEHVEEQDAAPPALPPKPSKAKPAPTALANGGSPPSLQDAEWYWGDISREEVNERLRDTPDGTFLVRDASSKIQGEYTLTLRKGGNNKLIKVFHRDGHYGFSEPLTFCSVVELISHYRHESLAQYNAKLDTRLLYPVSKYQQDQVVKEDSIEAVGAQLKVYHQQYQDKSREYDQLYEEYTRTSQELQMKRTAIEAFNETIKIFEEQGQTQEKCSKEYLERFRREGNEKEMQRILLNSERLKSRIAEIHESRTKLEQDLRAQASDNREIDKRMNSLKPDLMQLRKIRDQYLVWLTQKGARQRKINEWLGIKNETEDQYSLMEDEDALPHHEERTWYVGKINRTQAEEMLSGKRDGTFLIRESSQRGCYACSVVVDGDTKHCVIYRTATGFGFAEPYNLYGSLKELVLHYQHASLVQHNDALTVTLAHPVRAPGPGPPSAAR
In short: as §1

PRK1(h) = target: T5, PRK1(h) (Homo sapiens, UniProt Q16512)
T5 construct: gene PKN1
In short: as §1

Pyk2(h) = target: T6, Pyk2(h) (Homo sapiens, UniProt Q14289)
T6 construct: gene PTK2B
In short: as §1

SIK3(h) = SIK3(h) (Homo sapiens, UniProt Q9Y2K2)
Chain of SIK3(h) (Q9Y2K2 whole entry): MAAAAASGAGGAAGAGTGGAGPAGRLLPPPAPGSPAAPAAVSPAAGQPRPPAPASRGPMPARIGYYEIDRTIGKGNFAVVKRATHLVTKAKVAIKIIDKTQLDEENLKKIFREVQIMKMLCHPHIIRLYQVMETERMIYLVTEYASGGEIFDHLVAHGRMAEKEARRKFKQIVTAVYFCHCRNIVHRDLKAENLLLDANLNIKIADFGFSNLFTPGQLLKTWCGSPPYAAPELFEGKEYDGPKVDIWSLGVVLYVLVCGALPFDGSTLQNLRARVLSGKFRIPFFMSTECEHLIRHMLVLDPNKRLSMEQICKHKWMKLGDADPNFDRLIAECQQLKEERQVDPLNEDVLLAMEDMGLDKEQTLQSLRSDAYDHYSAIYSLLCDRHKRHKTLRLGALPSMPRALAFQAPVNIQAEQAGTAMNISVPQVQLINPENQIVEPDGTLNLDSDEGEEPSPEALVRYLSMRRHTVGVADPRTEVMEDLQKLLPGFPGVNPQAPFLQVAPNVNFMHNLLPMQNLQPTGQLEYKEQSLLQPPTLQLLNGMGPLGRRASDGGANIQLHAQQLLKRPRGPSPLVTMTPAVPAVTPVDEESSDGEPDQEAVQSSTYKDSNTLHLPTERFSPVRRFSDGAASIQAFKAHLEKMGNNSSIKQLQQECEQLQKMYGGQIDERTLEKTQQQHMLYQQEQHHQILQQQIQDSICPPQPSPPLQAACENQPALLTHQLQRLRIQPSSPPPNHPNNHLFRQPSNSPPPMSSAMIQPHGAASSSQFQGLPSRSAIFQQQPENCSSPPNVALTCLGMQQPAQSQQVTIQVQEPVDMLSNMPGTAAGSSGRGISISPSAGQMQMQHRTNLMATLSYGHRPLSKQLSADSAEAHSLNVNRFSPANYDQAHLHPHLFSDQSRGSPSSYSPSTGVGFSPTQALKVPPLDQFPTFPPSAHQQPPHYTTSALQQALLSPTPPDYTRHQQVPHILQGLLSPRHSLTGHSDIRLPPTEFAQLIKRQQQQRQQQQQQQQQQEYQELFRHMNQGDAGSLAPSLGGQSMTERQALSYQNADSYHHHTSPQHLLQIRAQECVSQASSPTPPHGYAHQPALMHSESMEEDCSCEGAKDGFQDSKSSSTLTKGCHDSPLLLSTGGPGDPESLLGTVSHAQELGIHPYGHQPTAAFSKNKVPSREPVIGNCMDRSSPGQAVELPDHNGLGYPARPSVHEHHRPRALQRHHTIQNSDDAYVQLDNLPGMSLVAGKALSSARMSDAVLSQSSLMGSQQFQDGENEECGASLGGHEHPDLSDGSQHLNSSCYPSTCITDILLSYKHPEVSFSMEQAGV
In short: as §1

Src(T341M)(h) = Src(T341M)(h) (Homo sapiens, UniProt P12931, T341M)
Chain of Src(T341M)(h) (P12931 whole entry T341M): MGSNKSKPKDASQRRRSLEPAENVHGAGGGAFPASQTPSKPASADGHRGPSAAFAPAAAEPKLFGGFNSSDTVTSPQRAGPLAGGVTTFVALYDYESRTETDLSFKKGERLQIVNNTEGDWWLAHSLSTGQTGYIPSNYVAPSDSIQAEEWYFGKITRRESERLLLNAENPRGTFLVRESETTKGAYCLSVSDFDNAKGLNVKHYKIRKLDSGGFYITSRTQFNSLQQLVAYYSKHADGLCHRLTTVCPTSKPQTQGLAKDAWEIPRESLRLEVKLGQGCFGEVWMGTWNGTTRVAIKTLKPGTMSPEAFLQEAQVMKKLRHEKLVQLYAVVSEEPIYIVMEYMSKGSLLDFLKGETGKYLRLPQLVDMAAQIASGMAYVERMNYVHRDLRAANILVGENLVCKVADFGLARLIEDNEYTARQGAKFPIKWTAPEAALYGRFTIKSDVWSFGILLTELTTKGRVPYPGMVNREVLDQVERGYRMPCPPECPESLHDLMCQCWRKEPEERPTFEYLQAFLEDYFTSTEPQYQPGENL
In short: as §1

[2] = read-out: Residual activity (%) Spautin-1 5aa
[3] = read-out: Residual activity (%) 5as
[4] = read-out: Residual activity (%) 5at
[5] = read-out: Residual activity (%) 5ay

T1 sequence (P15056 whole entry): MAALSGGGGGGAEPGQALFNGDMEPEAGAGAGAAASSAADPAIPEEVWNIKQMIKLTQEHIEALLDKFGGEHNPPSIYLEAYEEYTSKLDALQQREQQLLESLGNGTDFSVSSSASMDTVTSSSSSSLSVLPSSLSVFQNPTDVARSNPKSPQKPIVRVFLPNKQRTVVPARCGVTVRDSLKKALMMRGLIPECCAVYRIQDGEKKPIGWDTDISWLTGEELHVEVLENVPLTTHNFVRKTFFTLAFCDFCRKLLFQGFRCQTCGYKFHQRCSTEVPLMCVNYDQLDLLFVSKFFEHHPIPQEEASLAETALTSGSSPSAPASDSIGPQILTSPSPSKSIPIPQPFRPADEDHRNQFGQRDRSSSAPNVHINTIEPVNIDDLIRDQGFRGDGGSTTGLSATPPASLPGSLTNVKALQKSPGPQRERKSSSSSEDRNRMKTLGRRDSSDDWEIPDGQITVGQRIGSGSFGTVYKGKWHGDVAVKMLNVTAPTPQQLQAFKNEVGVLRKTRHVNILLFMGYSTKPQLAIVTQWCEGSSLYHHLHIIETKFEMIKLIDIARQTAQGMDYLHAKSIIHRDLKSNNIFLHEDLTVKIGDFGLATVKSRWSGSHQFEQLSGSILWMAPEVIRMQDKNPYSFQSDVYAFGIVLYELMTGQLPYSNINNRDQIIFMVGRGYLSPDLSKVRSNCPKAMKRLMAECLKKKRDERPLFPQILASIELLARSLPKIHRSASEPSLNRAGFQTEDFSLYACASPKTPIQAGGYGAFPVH

## Fc1ccc(CNc2ncnc3ccc(F)cc23)cc1 [5aa, 6-Fluoro-N-(4-fluorobenzyl)-4-Quinazolinamine]
B-Raf(h); [2]
  remaining activity at 10 µM: 90%
CLK3(h); [2]
  remaining activity at 10 µM: 88%
EphA3(h); [2]
  remaining activity at 10 µM: 116%
HIPK1(h); [2]
  remaining activity at 10 µM: 94%
NLK(h); [2]
  remaining activity at 10 µM: 85%
[1]; [2]
  remaining activity at 10 µM: 97%
PRK1(h); [2]
  remaining activity at 10 µM: 89%
Pyk2(h); [2]
  remaining activity at 10 µM: 86%
SIK3(h); [2]
  remaining activity at 10 µM: 95%
Src(T341M)(h); [2]
  remaining activity at 10 µM: 94%

## Fc1ccc(CCNc2ncnc3ccc(F)cc23)cc1 [5as, 6-Fluoro-N-[2-(4-Fluorophenyl)Ethyl]-4-Quinazolinamine]
B-Raf(h); [3]
  remaining activity at 10 µM: 83%
CLK3(h); [3]
  remaining activity at 10 µM: 117%
EphA3(h); [3]
  remaining activity at 10 µM: 108%
HIPK1(h); [3]
  remaining activity at 10 µM: 120%
NLK(h); [3]
  remaining activity at 10 µM: 93%
[1]; [3]
  remaining activity at 10 µM: 86%
PRK1(h); [3]
  remaining activity at 10 µM: 72%
Pyk2(h); [3]
  remaining activity at 10 µM: 74%
SIK3(h); [3]
  remaining activity at 10 µM: 79%
Src(T341M)(h); [3]
  remaining activity at 10 µM: 103%

## Fc1ccc2ncnc(NCCc3ccc(Cl)cc3)c2c1 [5at, N-[2-(4-Chlorophenyl)Ethyl]-6-Fluoro-4-Quinazolinamine]
B-Raf(h); [4]
  remaining activity at 10 µM: 92%
CLK3(h); [4]
  remaining activity at 10 µM: 116%
EphA3(h); [4]
  remaining activity at 10 µM: 94%
HIPK1(h); [4]
  remaining activity at 10 µM: 103%
NLK(h); [4]
  remaining activity at 10 µM: 82%
[1]; [4]
  remaining activity at 10 µM: 87%
PRK1(h); [4]
  remaining activity at 10 µM: 80%
Pyk2(h); [4]
  remaining activity at 10 µM: 69%
SIK3(h); [4]
  remaining activity at 10 µM: 71%
Src(T341M)(h); [4]
  remaining activity at 10 µM: 83%

## COc1ccc2ncnc(Nc3cccc(F)c3)c2c1 [5ay, N-(3-Fluorophenyl)-6-Methoxy-4-Quinazolinamine]
B-Raf(h); [5]
  remaining activity at 10 µM: 82%
CLK3(h); [5]
  remaining activity at 10 µM: 114%
EphA3(h); [5]
  remaining activity at 10 µM: 110%
HIPK1(h); [5]
  remaining activity at 10 µM: 78%
NLK(h); [5]
  remaining activity at 10 µM: 80%
[1]; [5]
  remaining activity at 10 µM: 89%
PRK1(h); [5]
  remaining activity at 10 µM: 77%
Pyk2(h); [5]
  remaining activity at 10 µM: 72%
SIK3(h); [5]
  remaining activity at 10 µM: 81%
Src(T341M)(h); [5]
  remaining activity at 10 µM: 96%

Source: publication PMC7827406, “Structure–Activity Relationship (SAR) Study of Spautin-1 to Entail the Discovery of Novel NEK4 Inhibitors” (International Journal of Molecular Sciences, 2021)
